Data from paper PMC4865820, “Branched Peptide, B2088, Disrupts the Supramolecular Organization of Lipopolysaccharides and Sensitizes the Gram-negative Bacteria” (Scientific Reports, 2016).
Where two headings read alike, the source gives them in different places. Positions of bridges follow the written chain, without caps; N, C: chain ends. Non-standard residues stand in square brackets, D forms with d. Residues, ends and D or L forms follow the SMILES beside them. Chains are numbered I, II in the order given. *: point of attachment. X1 = CC[C@H](C)CCCCC(=O)*; Dab = NCC[C@H](N)C(=O)O

What was measured:
lipid A = test: BODIPY TR cadaverine (BC) displacement assay with lipid A; assay type: binding; conditions: 5 mM HEPES pH 7.4; fluorescence ex 580/em 620 nm
Description: To investigate the interaction of B2088 with LPS, we performed the BODIPY TR cadaverine (BC) displacement assay reported by Wood et al.[22]. The probe binds to the lipid A part of the LPS with moderate affinity and can be displaced by putative LPS-binding molecules. The method was used to probe the affinity of polycationic molecules and LPS binding proteins. First, we determined the affinity of polymyxin B (PMB), a lipopeptide cyclic antibiotic which has a high affinity for LPS. […] Figure 1a,b show the concentration-dependent displacement of LPS/lipid A-bound BC upon addition of B2088. […] To confirm the importance of branching, we determined the BC50 for a linear retrodimer having the amino acid sequence, […] (Fig. 1d). […]
The BC displacement assay was used to determine the ability of each peptide to bind to LPS. […] The maximum fluorescence intensity (Fmax) was determined using a mixture containing 100 μl PMB (50 μg/ml) and 100 μl BC:LPS solution, as PMB is considered the ‘gold standard’ for LPS-sequestering agents. The minimum fluorescence intensity (F0) was measured using 200 μl of BC:LPS mixture to determine the background noise for this experiment. Fluorescence measurements for each peptide (F) were determined using a microplate reader (Model: TECAN Infinite 200, Austria) with excitation and emission wavelengths set at 580 nm and 620 nm respectively. […]

P. aeruginosa ATCC 27853 = test: microbe, parasite or virus in culture; assay type: cell-based
How it was run: (§1)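 Peptides two-fold diluted in Mueller-Hinton Broth (0.0976–50 μg/ml final) against 10^5–10^6 CFU/ml inoculum, 37 °C for 24 h with OD600 monitored every 30 min. MIC = lowest concentration with no visible growth; two independent duplicates.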

K. pneumoniae ATCC10031 = assay type: cell-based
How it was run: as §1

P. aeruginosa 23155 = assay type: cell-based
How it was run: as §1

P. aeruginosa ATCC 9027 = test: Outer membrane permeability assay (NPN); assay type: cell-based; conditions: no unit in table; Fig. S5 axis [Peptide], μM; 10 μM NPN, 5 mM HEPES pH 7.4, ex 355/em 405 nm; average of two titrations; read-out: PC50 (peptide concentration for half-maximal NPN intensity, OM permeability)
How it was run: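 Overnight MHB-grown cells were washed and resuspended in 5 mM HEPES pH 7.4 to OD600 0.200, then loaded with 10 μM NPN (final), with peptide titrated in after dye stabilization. Fluorescence ex 355/em 405 nm; PC50 is the peptide concentration giving half-maximal intensity, from a sigmoidal fit averaged over two titrations.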

[1] = test system: human corneal epithelial (hTCEpi) cells
Description: To assess the safety of B2088 as a part of preclinical assessment, we used the xCELLigence system for the real-time analysis of cytotoxicity.

[2] = MHB, 10^5–10^6 CFU/ml, 37 °C, 24 h, two independent duplicates

Q: With `CC(C)[C@H](NC(=O)[C@H](CCCCN)NC(=O)[C@H](CCCNC(=N)N)NC(=O)CNC(=O)[C@@H](N)CCCNC(=N)N)C(=O)N[C@H](C(=O)N[C@@H](CCCNC(=N)N)C(=O)N[C@@H](CCCNC(=N)N)C(=O)NCCCC[C@H](NC(=O)[C@H](CCCNC(=N)N)NC(=O)[C@H](CCCNC(=N)N)NC(=O)[C@@H](NC(=O)[C@@H](NC(=O)[C@H](CCCCN)NC(=O)[C@H](CCCNC(=N)N)NC(=O)CNC(=O)[C@@H](N)CCCNC(=N)N)C(C)C)C(C)C)C(=O)N[C@@H](CCCCN)C(=O)O)C(C)C` [B2088] (I: H-RGRKVVRRKK-OH / II: H-RGRKVVRR; amide I:9-II:C; N-terminus and C-terminus assumed) as the compound, how does the “ED50 (50% displacement of BC dye from lipid A)” value (lipid A) read?
A: 0.7 ± 0.14 µM

Q: And the “Minimum Inhibitory Concentration against P. aeruginosa ATCC 27853” value (P. aeruginosa ATCC 27853; ATCC 27853, 24 h)?
A: 2.7 µM

Q: And the “Minimum Inhibitory Concentration against K. pneumoniae ATCC10031” value (K. pneumoniae ATCC10031; ATCC10031, 24 h)?
A: 1.4 µM

Q: What about the “Minimum Inhibitory Concentration against P. aeruginosa 23155” value (P. aeruginosa 23155; 23155, 24 h) of the same compound?
A: 1.4 µM

Q: What about the EC50 (P. aeruginosa ATCC 9027) of the same compound?
A: 13.2 ± 0.4 µM

Q: And the “Change in CI values with time” value [1]?
A: significant increase in CI values

Q: `CC[C@H](C)CCCCC(=O)N[C@@H](CCN)C(=O)N[C@H](C(=O)N[C@@H](CCN)C(=O)N[C@H]1CCNC(=O)[C@H]([C@@H](C)O)NC(=O)[C@H](CCN)NC(=O)[C@H](CCN)NC(=O)[C@H](CC(C)C)NC(=O)[C@@H](Cc2ccccc2)NC(=O)[C@H](CCN)NC1=O)[C@@H](C)O` [Polymyxin B, polymyxin B, reference compound] (X1-[Dab]T[Dab][Dab][Dab][dF]L[Dab][Dab]T; lactam 4-C (inferred); N-terminus assumed) was tested. Which “Minimum Inhibitory Concentration against P. aeruginosa ATCC 27853” value (P. aeruginosa ATCC 27853; [2]) did it give?
A: 0.57 µM

Q: What about the “Minimum Inhibitory Concentration against K. pneumoniae ATCC10031” value (K. pneumoniae ATCC10031; [2]) of the same compound?
A: 0.57 µM

Q: What about the “Minimum Inhibitory Concentration against P. aeruginosa 23155” value (P. aeruginosa 23155; [2]) of the same compound?
A: 0.57 µM

Q: And the EC50 (P. aeruginosa ATCC 9027)?
A: 5.82 ± 0.6 µM
